pIC50: −log10 of the molar value.
Molecular target: p38α (Homo sapiens, UniProt Q16539)
Assay: p38α/MK2 cascade assay
Assay type: biochemical
Conditions: Table 2; same p38α/MK2 cascade assay; 40 minutes preincubation; read-out: p38a/MK2 Cascade 40 min Pre-Incuabtion (% Inhibition): IC50
In short: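 In a cascade format, p38α was preincubated 40 min with inhibitor (1000–0.05 nM) before adding 1 nM nonactive MK2 (54-400), 5 μM MgATP and 0.5 μM FITC-Hsp27 peptide. Reaction ran 60 min in HEPES pH 7.5 with MgCl2, DTT, 2% DMSO, then EDTA-quenched. Peptide phosphorylation was measured by Caliper mobility shift to give IC50.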

Chain of p38α (Q16539 whole entry): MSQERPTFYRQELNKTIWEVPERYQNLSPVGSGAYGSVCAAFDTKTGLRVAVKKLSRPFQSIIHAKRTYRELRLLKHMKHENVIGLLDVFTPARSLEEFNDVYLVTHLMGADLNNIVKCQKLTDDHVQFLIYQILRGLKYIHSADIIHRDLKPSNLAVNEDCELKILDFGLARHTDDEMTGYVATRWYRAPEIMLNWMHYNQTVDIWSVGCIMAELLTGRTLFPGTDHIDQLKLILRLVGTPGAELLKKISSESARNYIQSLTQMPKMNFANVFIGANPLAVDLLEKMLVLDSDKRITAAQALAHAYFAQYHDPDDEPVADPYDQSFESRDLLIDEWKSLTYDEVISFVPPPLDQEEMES

Row | SMILES | pIC50
1 | CNC(=O)c1ccc(C)c(-n2c(C)cc(OCc3ccc(F)cc3CNC(=O)Nc3cc(C(C)(C)C)nn3-c3ccc(O)c(Cl)c3)c(Cl)c2=O)c1 [Example 236, 3-{4-[(2-{[({[3-tert-butyl-1-(3-chloro-4-hydroxyphenyl)-1H-pyrazol-5-yl]amino}carbonyl)amino]methyl}-4-fluorobenzyl)-oxy]-3-chloro-6-methyl-2-oxopyridin-1(2H)-yl}-N,4-dimethyl-benzamide] | 8.12
2 | COc1ccc(Cn2c(C)cc(OCc3ccccc3CNC(=O)Nc3cc(C(C)(C)C)nn3-c3ccccc3)c(C)c2=O)cc1 [Example 237, 1-(3-tert-butyl-1-phenyl-1H-pyrazol-5-yl)-3-[2-({[1-(4-methoxybenzyl)-3,6-dimethyl-2-oxo-1,2-dihydropyridin-4-yl]oxy}methyl)benzyl]urea] | 7.95
3 | Cc1ccc(C(=O)NCCO)cc1-n1c(C)cc(OCc2ccc(F)cc2CNC(=O)Nc2cc(C(C)(C)C)nn2-c2cccc(OCCO)c2)c(Cl)c1=O [Example 239, 3-[4-{[2-({[({3-tert-butyl-1-[3-(2-hydroxyethoxy)phenyl]-1H-pyrazol-5-yl}amino)carbonyl]amino}methyl)-4-fluorobenzyl]-oxy}-3-chloro-6-methyl-2-oxopyridin-1(2H)-yl]-N-(2-hydroxy-ethyl)-4-methylbenzamide] | 8.54
4 | Cc1ccc(C(=O)NCCN(C)C)cc1-n1c(C)cc(OCc2ccccc2CNC(=O)Nc2cc(C(C)(C)C)nn2-c2cccc(OCCO)c2)c(Cl)c1=O [Example 240, 3-[4-{[2-({[({3-tert-butyl-1-[3-(2-hydroxyethoxy)phenyl]-1H-pyrazol-5-yl}amino)carbonyl]amino}methyl)benzyl]oxy}-3-chloro-6-methyl-2-oxopyridin-1(2H)-yl]-N-[2-(dimethylamino)-ethyl]-4-methylbenzamide] | 8.68
5 | CSc1ccccc1Cn1c(C)cc(OCc2ccccc2CNC(=O)Nc2cc(C(C)(C)C)nn2-c2ccc(O)cc2)c(C)c1=O [Example 241, 1-[3-tert-butyl-1-(4-hydroxyphenyl)-1H-pyrazol-5-yl]-3-{2-[({3,6-dimethyl-1-[2-(methylthio)benzyl]-2-oxo-1,2-dihydro-pyridin-4-yl}oxy)methyl]benzyl}urea] | 7.87
6 | COc1ccc(Cn2c(C)cc(OCc3ccccc3CNC(=O)Nc3cc(C(C)(C)C)nn3-c3cccc(Cl)c3)c(Br)c2=O)c(OC)c1 [Example 242, 1-[2-({[3-bromo-1-(2,4-dimethoxybenzyl)-6-methyl-2-oxo-1,2-dihydropyridin-4-yl]oxy}methyl)benzyl]-3-[3-tert-butyl-1-(3-chlorophenyl)-1H-pyrazol-5-yl]urea] | 7.97
7 | COc1ccc(Cn2c(C)cc(OCc3ccccc3CNC(=O)Nc3cc(C(C)(C)C)nn3-c3ccccc3)c(C)c2=O)c(OC)c1 [Example 243, 1-(3-tert-butyl-1-phenyl-1H-pyrazol-5-yl)-3-[2-({[1-(2,4-dimethoxybenzyl)-3,6-dimethyl-2-oxo-1,2-dihydropyridin-4-yl]oxy}methyl)benzyl]urea] | 8.02
8 | COc1ccccc1Cn1c(C)cc(OCc2ccccc2CNC(=O)Nc2cc(C(C)(C)C)nn2-c2cccc(O)c2)c(Cl)c1=O [Example 247, 1-[3-tert-butyl-1-(3-hydroxyphenyl)-1H-pyrazol-5-yl]-3-[2-({[3-chloro-1-(2-methoxybenzyl)-6-methyl-2-oxo-1,2-dihydropyridin-4-yl]oxy}methyl)benzyl]urea] | 7.98
9 | COc1ccccc1Cn1c(C)cc(OCc2ccccc2CNC(=O)Nc2cc(C(C)(C)C)nn2-c2ccc(O)c(Cl)c2)c(Cl)c1=O [Example 248, 1-[3-tert-butyl-1-(3-chloro-4-hydroxyphenyl)-1H-pyrazol-5-yl]-3-[2-({[3-chloro-1-(2-methoxybenzyl)-6-methyl-2-oxo-1,2-dihydropyridin-4-yl]oxy}methyl)benzyl]urea] | 7.82
10 | COc1ccc(Cn2c(C)cc(OCc3ccccc3CNC(=O)Nc3cc(C(C)(C)C)nn3-c3cccc(OCCO)c3)c(C)c2=O)cc1C#N [Example 250, 1-{3-tert-butyl-1-[3-(2-hydroxyethoxy)phenyl]-1H-pyrazol-5-yl}-3-[2-({[1-(3-cyano-4-methoxybenzyl)-3,6-dimethyl-2-oxo-1,2-dihydropyridin-4-yl]oxy}methyl)benzyl]urea] | 8.08
11 | COc1ccc(Cn2c(C)cc(OCc3ccccc3CNC(=O)Nc3cc(C(C)(C)C)nn3-c3ccc(O)cc3)c(C)c2=O)cc1C#N [Example 253, 1-[3-tert-butyl-1-(4-hydroxyphenyl)-1H-pyrazol-5-yl]-3-[2-({[1-(3-cyano-4-methoxybenzyl)-3,6-dimethyl-2-oxo-1,2-dihydropyridin-4-yl]oxy}methyl)benzyl]urea] | 8.08
12 | COc1cc(Cn2c(C)cc(OCc3ccccc3CNC(=O)Nc3cc(C(C)(C)C)nn3-c3ccc(O)c(Cl)c3)c(Cl)c2=O)ccc1Cl [Example 254, 1-[3-tert-butyl-1-(3-chloro-4-hydroxyphenyl)-1H-pyrazol-5-yl]-3-[2-({[3-chloro-1-(4-chloro-3-methoxybenzyl)-6-methyl-2-oxo-1,2-dihydropyridin-4-yl]oxy}methyl)benzyl]urea] | 7.58
13 | COc1ccc(Cn2c(C)cc(OCc3ccccc3CNC(=O)Nc3cc(C(C)(C)C)nn3-c3ccc(Cl)c(O)c3)c(Cl)c2=O)cc1 [Example 257, 1-[3-tert-butyl-1-(4-chloro-3-hydroxyphenyl)-1H-pyrazol-5-yl]-3-[2-({[3-chloro-1-(4-methoxybenzyl)-6-methyl-2-oxo-1,2-dihydro-pyridin-4-yl]oxy}methyl)benzyl]urea] | 8.33
14 | COc1cc(Cn2c(C)cc(OCc3ccccc3CNC(=O)Nc3cc(C(C)(C)C)nn3-c3ccc(O)cc3)c(Cl)c2=O)ccc1Cl [Example 258, 1-[3-tert-butyl-1-(4-hydroxyphenyl)-1H-pyrazol-5-yl]-3-[2-({[3-chloro-1-(4-chloro-3-methoxybenzyl)-6-methyl-2-oxo-1,2-dihydropyridin-4-yl]oxy}methyl)benzyl]urea] | 8.00

More lines, in order of rising pIC50, values ahead:

Row | pIC50 | SMILES
15 | 7.70 | COc1cc(Cn2c(C)cc(OCc3ccccc3CNC(=O)Nc3cc(C(C)(C)C)nn3-c3ccc(Cl)c(O)c3)c(Cl)c2=O)ccc1Cl [Example 256, 1-[3-tert-butyl-1-(4-chloro-3-hydroxyphenyl)-1H-pyrazol-5-yl]-3-[2-({[3-chloro-1-(4-chloro-3-methoxybenzyl)-6-methyl-2-oxo-1,2-dihydropyridin-4-yl]oxy}methyl)benzyl]urea]
16 | 7.86 | COc1ccc(Cn2c(C)cc(OCc3ccccc3CNC(=O)Nc3cc(C(C)(C)C)nn3-c3ccc(F)cc3F)c(C)c2=O)c(OC)c1 [Example 244, 1-[3-tert-butyl-1-(2,4-difluorophenyl)-1H-pyrazol-5-yl]-3-[2-({[1-(2,4-dimethoxybenzyl)-3,6-dimethyl-2-oxo-1,2-dihydropyridin-4-yl]oxy}methyl)benzyl]urea]
17 | 7.87 | COc1ccc(Cn2c(C)cc(OCc3ccccc3CNC(=O)Nc3cc(C(C)(C)C)nn3-c3ccc(C)cc3)c(C)c2=O)c(OC)c1 [Example 245, 1-[3-tert-butyl-1-(4-methylphenyl)-1H-pyrazol-5-yl]-3-[2-({[1-(2,4-dimethoxybenzyl)-3,6-dimethyl-2-oxo-1,2-dihydropyridin-4-yl]oxy}methyl)benzyl]urea]
18 | 8.00 | COc1ccccc1Cn1c(C)cc(OCc2ccccc2CNC(=O)Nc2cc(C(C)(C)C)nn2-c2ccc(O)cc2)c(Cl)c1=O [Example 246, 1-[3-tert-butyl-1-(4-hydroxyphenyl)-1H-pyrazol-5-yl]-3-[2-({[3-chloro-1-(2-methoxybenzyl)-6-methyl-2-oxo-1,2-dihydropyridin-4-yl]oxy}methyl)benzyl]urea]
19 | 8.02 | COc1ccc(Cn2c(C)cc(OCc3ccccc3CNC(=O)Nc3cc(C(C)(C)C)nn3-c3ccc(O)c(Cl)c3)c(C)c2=O)cc1C#N [Example 249, 1-[3-tert-butyl-1-(3-chloro-4-hydroxyphenyl)-1H-pyrazol-5-yl]-3-[2-({[1-(3-cyano-4-methoxybenzyl)-3,6-dimethyl-2-oxo-1,2-dihydropyridin-4-yl]oxy}methyl)benzyl]urea]
20 | 8.08 | COc1ccc(Cn2c(C)cc(OCc3ccccc3CNC(=O)Nc3cc(C(C)(C)C)nn3-c3ccc(Cl)c(O)c3)c(C)c2=O)cc1C#N [Example 251, 1-[3-tert-butyl-1-(4-chloro-3-hydroxyphenyl)-1H-pyrazol-5-yl]-3-[2-({[1-(3-cyano-4-methoxybenzyl)-3,6-dimethyl-2-oxo-1,2-dihydropyridin-4-yl]oxy}methyl)benzyl]urea]
21 | 8.14 | COc1cc(Cn2c(C)cc(OCc3ccccc3CNC(=O)Nc3cc(C(C)(C)C)nn3-c3cccc(OCCO)c3)c(Cl)c2=O)ccc1Cl [Example 255, 1-{3-tert-butyl-1-[3-(2-hydroxyethoxy)phenyl]-1H-pyrazol-5-yl}-3-[2-({[3-chloro-1-(4-chloro-3-methoxybenzyl)-6-methyl-2-oxo-1,2-dihydropyridin-4-yl]oxy}methyl)benzyl]urea]
22 | 8.22 | COc1ccc(Cn2c(C)cc(OCc3ccccc3CNC(=O)Nc3cc(C(C)(C)C)nn3-c3cccc(O)c3)c(C)c2=O)cc1C#N [Example 252, 1-[3-tert-butyl-1-(3-hydroxyphenyl)-1H-pyrazol-5-yl]-3-[2-({[1-(3-cyano-4-methoxybenzyl)-3,6-dimethyl-2-oxo-1,2-dihydro-pyridin-4-yl]oxy}methyl)benzyl]urea]
23 | 8.70 | COCCNC(=O)c1ccc(C)c(-n2c(C)cc(OCc3ccccc3CNC(=O)Nc3cc(C(C)(C)C)nn3-c3cccc(OCCO)c3)c(Cl)c2=O)c1 [Example 238, 3-[4-{[2-({[({3-tert-butyl-1-[3-(2-hydroxyethoxy)phenyl]-1H-pyrazol-5-yl}amino)carbonyl]amino}methyl)benzyl]oxy}-3-chloro-6-methyl-2-oxopyridin-1(2H)-yl]-N-(2-methoxyethyl)-4-methylbenzamide]
